In patent US8258295B2, “Triazine derivatives, compositions containing such derivatives, and methods of treatment of cancer and autoimmune diseases using such derivatives” (Prometic Biosciences Inc., priority 2007, dated 2012):
Where two headings read alike, the source gives them in different places.

Experiments:
[1] = system: P815 murine mastocytoma cell; assay: MTT cytotoxicity on P815; type: cell-based; conditions: Mus musculus
Procedure: (§1) This assay was performed to determine the effect of compounds of the present invention on cell cytotoxicity. Cells were incubated in presence or absence of compounds in their respective conditioned media. After 24 hr or 72 hr incubation, 50 μl of 3-(4,5-dimethyl-2-thiazyl)-2,5-diphenyl-2H-tetrazolium bromide (MTT; 2 mg/ml) was added and further incubated for 4 hr. The supernatant was discarded and 100 μl of dimethylsulfoxide (DMSO) was added. Absorbance was read at 570 nm with a TecanSunrise ELISA plate reader. The control group consisted of cells without compounds and is referred to as 100% of viable cells. IC50 was determined using Prism software.
(§2) All compounds have weak effect on cell cytotoxicity. The predictive utility of cell based cytotoxicity assays to assess the potential in vivo anticancer activity of compounds with selected cancer cell lines is well established in the art and the use of whole cells, instead of isolated protein receptors or enzymes, provides a more reliable determination of activity. See, for example, Paull et al. (J. Nat'l Cancer Inst. 81:1088-1092, 1989); Monks et al. (J. Nat'l Cancer Inst. 83:757-766, 1991); Bandes et al. (J. Nat'l Cancer Inst. 86:770-775, 1994); and Kamate et al. (Int'l J. Cancer 100:571-579, 2002).

[2] = system: TNFα production; assay: LPS-induced TNFα production in J774A.1 cells (ELISA); type: cell-based; conditions: Mus musculus, J774.A1, 24 hr
Procedure: Effect of compounds on TNFα production was measured by ELISA using J774A.1 cells stimulated by LPS. J774A.1 cells were cultured in the presence or absence of LPS and compound. Cells were cultured for 24 hr at 37° C. and thereafter the supernatants were collected for the determination of the concentration of TNFα by ELISA as recommended by the manufacturer (BD Biosciences). Data was analyzed in Microsoft Excel software and the concentration of compound which inhibits 50% of TNFα production (IC50) was calculated using Prism software.

[3] = system: PC-3 cells; assay: In vitro PC-3 cell migration or invasion assay (EGF-induced); type: cell-based, human; conditions: mitomycin C treated cells, 24 hr
Procedure: An in vitro migration assay was used to assess cell mobility in two dimensions. PC-3 cells were plated on a 12-well plate and grown to confluence in RPMI+10% FBS. A rubber policeman was used to create a denuded area. Confluent cells were quiesced by mitomycin C treatment (0.5 μM) at the concentration used to prevent the confounding issue of cell proliferation and protein synthesis. These cells were also incubated in the presence or absence of […] growth factor (EGF) and compound for 24 hr, then they were photographed.
The effects of EGF and compound V on PC-3 cell migration or invasion in the in vitro migration assay were determined. EGF promotes the migration or invasion of PC-3 cells treated with mitomycin compared to control (i.e., no added EGF).

[4] = system: peripheral blood mononuclear leukocytes (PBML); assay: PBML DNA synthesis ([3H]-thymidine); type: cell-based; conditions: Homo sapiens, Leukocyte, 48 hr
Description: PBML were obtained from the peripheral blood of healthy volunteers. Blood was submitted to gradient centrifugation with Lympholyte-Poly media (Cedarlane, Hornby, Canada). The layer containing the mononuclear leukocytes was collected and the cells washed three times in PBS. Cells were then suspended in RPMI (Gibco, Burlington, Canada) supplemented with 10% FBS (Hyclone, Logan USA). Viability was greater than 99% as determined by trypan blue exclusion.
PBML were resuspended at 2×10^6 cells/ml. 100 μl of PBML (2×10^5 cells) were incubated in a 96-well microtiter plate for 48 hr in the presence or absence of compound. Cells were quiescent or stimulated with concanavalin A (con A; T-cells) or pokeweed mitogen (PWM; B-cells). After incubation, cells were treated with MTT (cytotoxicity) or pulsed with 1 μCi of [^3H]-thymidine (DNA synthesis), [^3H]-uridine (RNA synthesis), or [^3H]-leucine (protein synthesis) for 6 hr. Plates were harvested on a Tomteck and counted on a Microbeta β-counter.

[5] = system: HUVEC (human umbilical vein endothelial cell); assay: MTT cytotoxicity on HUVEC; type: cell-based
Procedure: as §1, §2

[6] = system: DA-3 breast tumor; assay: Primary DA-3 breast tumor in mice; type: in vivo; conditions: FIG. 4B; compound I IV 50 mg/kg, alone or with cyclophosphamide; up to day 35
[7] = system: PC-3 human prostate carcinoma cell; assay: MTT cytotoxicity on PC-3; type: cell-based
Procedure: as §1, §2

[8] = system: LPS-induced inflammation in the rat air-pouch model; assay: LPS-induced inflammation in rat air-pouch model; type: in vivo, rats; conditions: IV; for PGE2 production induced by LPS / TNFα production induced by LPS / LTB4 production induced by LPS / MCP-1 production induced by LPS: pouch exudate; for LTB4 production induced by LPS: FIG. 20C; for MCP-1 production induced by LPS: FIG. 20D; for white blood cell count: two hours after LPS induction, FIG. 19
Description: LPS-induced inflammation in the rat air-pouch model is believed to mimic the pathological process occurring in joint diseases such as arthritis. This is because the connective tissues formed along the air pouch are similar to those found in chronic joint diseases. LPS-induced inflammation and chronic joint diseases share other features, including markedly elevated PGE2, neutrophil infiltration, cytokine formation, and tissue damage.
An air cavity was produced at day −6 by subcutaneous injection of 20 ml of sterile air into the intrascapular area of the back of male Lewis rats (175 to 200 g). An additional 10 ml of air was injected into the cavity at day −3 to keep the space open. At day 0, compounds were administered intravenously and one hour later lipopolysaccharide (LPS: 2.5 ml of 2 μg/ml in PBS) was injected into the pouch to produce an inflammatory reaction. […] The pouch fluid was collected. The volume of exudates was measured and the number of leukocytes present in the exudates was determined with a Coulter counter. The differential count was determined by Wright-Giemsa staining. PGE2, LTB4, MCP, and TNFα were determined in the pouch exudates by specific ELISAs.

[9] = system: xenograft human prostate PC-3 tumor; assay: Xenograft human prostate PC-3 tumor in nude mice; type: in vivo, mouse; conditions: FIG. 10A; CD1 nu/nu mice; compound IV 5 mg/kg
Procedure: PC-3 cells were grown in RPMI-1640 containing 10% fetal bovine serum. […] The animals were then serially monitored by manual palpation for evidence of tumor. […] Serial tumor volume was obtained by bi-dimensional diameter measurements with calipers, using the formula 0.4 (a×b^2) where “a” was the major tumor diameter and “b” the minor perpendicular diameter.

[10] = 24 hr culture, read-out: IC50 of 24-hour culture P815
[11] = 72 hr culture, read-out: IC50 of 72-hour culture P815
[12] = PWM stimulated PBML, read-out: DNA Synthesis PWM
[13] = con A stimulated PBML, read-out: DNA Synthesis Con A
[14] = resting PBML, read-out: DNA Synthesis Resting
[15] = 24 hr culture, read-out: IC50 of 24-hour culture HUVEC
[16] = 72 hr culture, read-out: IC50 of 72-hour culture HUVEC
[17] = 24 hr culture, read-out: IC50 of 24-hour culture PC-3
[18] = 72 hr culture, read-out: IC50 of 72-hour culture PC-3
[19] = twelve hours after induction, FIG. 21B
[20] = twelve hours post-LPS induction, FIG. 21A
[21] = two hours after induction, FIG. 20A
[22] = two hours after induction, FIG. 20B

| SMILES | IC50 [1, 10] | IC50 [1, 11] | IC50 [2] | IC50 [4, 12] | IC50 [4, 13] | IC50 [4, 14] | IC50 [5, 15] | IC50 [5, 16] | IC50 [7, 17] | IC50 [7, 18] | PGE2 production induced by LPS [8, 19] | TNFα production induced by LPS [8, 20] | TNFα production induced by LPS [8, 21] | PGE2 production induced by LPS [8, 22] | LTB4 production induced by LPS ([8]; two hours after induction) | MCP-1 production induced by LPS ([8]; two hours after induction) | white blood cell count [8] | also measured |
| --- | --- | --- | --- | --- | --- | --- | --- | --- | --- | --- | --- | --- | --- | --- | --- | --- | --- | --- |
| NCCCCCNc1nc(NCCc2ccc(O)cc2)nc(Nc2cccc(F)c2)n1 [Compound I] | 34 µM | 4 µM | 29 µM | 2.8 µM | 3.7 µM | > 10 µM | 18.8 µM | 10.1 µM | 49.4 µM | 11.8 µM | – | – | – | – | – | – | – | EGF-induced PC-3 migration or invasion ([3]; 1 μM to 20 μM): inhibition of the EGF-induced PC-3 migration or invasion; effect on DA-3 tumor growth [6]: weak inhibitory effect |
| NCCCCCNc1nc(NCCc2ccc(O)cc2)nc(Nc2ccc(F)cc2)n1 [Compound V] | 23.5 µM | 7.5 µM | 13 µM | 6.1 µM | 8 µM | > 10 µM | 31.8 µM | > 100 µM | 43.3 µM | 26.8 µM | significant inhibition | significant inhibition | significant inhibition | significant inhibition | weak inhibition | weak inhibition | significant inhibition | EGF-induced PC-3 migration or invasion ([3]; 1 μM to 10 μM): inhibition of the EGF-induced PC-3 migration or invasion |
| NCCCCCNc1nc(NCCc2ccc(S(N)(=O)=O)cc2)nc(Nc2cccc(F)c2)n1 [Compound II] | 66.5 µM | 1.6 µM | – | 1.7 µM | 2.9 µM | > 10 µM | 92.2 µM | 38.9 µM | 32.2 µM | 18.5 µM | weak and insignificant increase | no effect | increase the concentration of TNFα | weak and insignificant inhibition | weak inhibition | no influence | significant inhibition | effect on PC-3 tumor growth [9]: cytostatic (no growth) effect up to day 42 |
